{
  "source": "paper PMC3608651",
  "about": "“A Broad Profile of Co-Dominant Epitopes Shapes the Peripheral Mycobacterium tuberculosis Specific CD8+ T-Cell Immune Response in South African Patients with Active Tuberculosis” (PLoS ONE, 2013)",
  "key": {"[1]": {"target": "T1, HLA-B*58:01 (Homo sapiens, UniProt P01889, A329T/C349S/D201E/D98Y/E176V/E187L/E204Q/E69T/G107R/I218V/I90N/K202T/L105A/L119I/N104I/N87E/Q89R/Q94S/R106L/R155S/R180L/R86G/S101N/S121R/S35A/S48A/T118I/V127L/V306I/V36M/Y140S/Y91M)", "assay_type": "binding", "settings": "percent relative the binding of positive control peptide […]; duplicated experiments; positive binder >40%"}, "[2]": {"target": "T1, HLA-B*58:01", "assay_type": "binding"}, "[3]": {"target": "T1, HLA-B*58:01", "assay_type": "binding", "settings": "time points 0-8 h"}, "[4]": {"target": "T2, HLA-C*07:01 (Homo sapiens, UniProt P10321, K90N/S123Y)", "assay_type": "binding", "settings": "percent relative the binding of positive control peptide […]; duplicated experiments; positive binder >40%"}, "[5]": {"target": "T2, HLA-C*07:01", "assay": "affinity assay (ED50)", "assay_type": "binding"}, "[6]": {"target": "T2, HLA-C*07:01", "assay": "off-rate assay (t1/2)", "assay_type": "binding", "settings": "time points 0-8 h"}, "[7]": {"target": "T3, HLA-A*30:02 (Homo sapiens, UniProt P04439, D101N/D140H/D185E/E176R/F33S/G80R/H175R/K168Q/Q94H/R138E/R41S/V100E)", "settings": "percent relative the binding of a positive control peptide, cited from earlier work"}, "[8]": {"target": "T3, HLA-A*30:02", "settings": "cited from earlier work"}, "[9]": {"target": "T3, HLA-A*30:02", "settings": "cited from earlier work", "remark": "listed apart in the source"}, "[10]": {"target": "T4, HLA-B*07:02 (Homo sapiens, UniProt P01889)", "settings": "percent relative the binding of a positive control peptide; […]; cited from earlier work"}, "[11]": {"target": "T4, HLA-B*07:02", "settings": "cited from earlier work"}, "[12]": {"target": "T4, HLA-B*07:02", "settings": "cited from earlier work", "remark": "listed apart in the source"}, "[13]": {"target": "T5, HLA-A*30:01 (Homo sapiens, UniProt P04439, D140H/D185E/E176W/F33S/G80R/H175R/K168Q/R138E/R41S)", "settings": "percent relative the binding of a positive control peptide; wild-type epitopes marked **; cited from earlier work"}, "[14]": {"target": "T5, HLA-A*30:01", "settings": "wild-type epitopes marked **; cited from earlier work"}, "[15]": {"target": "T5, HLA-A*30:01", "settings": "wild-type epitopes marked **; cited from earlier work", "remark": "listed apart in the source"}, "[16]": {"target": "T6, HLA-A*02:01 (Homo sapiens, UniProt P04439, D140Y/D185E/D98H/E176V/E277Q/G131W/G231S/I119V/I121R/I166T/I218V/L300P/L318F/N151K/N90K/P208A/P217A/Q86G/Q94H/R138H/R169H/T345S)", "assay_type": "binding", "settings": "percent relative the binding of positive control peptide […]; plate-bound monomer 0.5 µg/ml; duplicated experiments; positive binder >40%"}, "[17]": {"target": "T6, HLA-A*02:01", "assay_type": "binding", "settings": "[…]; peptide quantity for 50% binding saturation"}, "[18]": {"target": "T6, HLA-A*02:01", "assay_type": "binding", "settings": "time points 0-8 h; time when 50% of peptide has dissociated"}, "[19]": {"target": "T7, HLA-A*24:02 (Homo sapiens, UniProt P04439, D101N/D140Y/D185E/E176V/E190D/F33S/G103R/G107R/I119L/I121M/I306V/K335N/L105A/L180Q/L300P/N151K/N90K/Q86E/Q94H/R106L/R138H/R89G/T104I/T345S/V100E/W191G/Y123F)", "assay_type": "binding", "settings": "percent relative the binding of positive control peptide […]; duplicated experiments; positive binder >40%"}, "[20]": {"target": "T7, HLA-A*24:02", "assay_type": "binding"}, "[21]": {"target": "T7, HLA-A*24:02", "assay_type": "binding", "settings": "time points 0-8 h"}, "[22]": {"target": "T5, HLA-A*30:01", "assay_type": "binding", "settings": "percent relative the binding of positive control peptide […]; duplicated experiments; positive binder >40%"}, "[23]": {"target": "T5, HLA-A*30:01", "assay": "affinity assay (ED50)", "assay_type": "binding", "settings": "peptide titrated 10−4 to 10−9 M"}, "[24]": {"target": "T5, HLA-A*30:01", "assay": "off-rate assay (t1/2)", "assay_type": "binding", "settings": "time points 0-8 h"}, "[25]": {"target": "T3, HLA-A*30:02", "assay_type": "binding", "settings": "percent relative the binding of positive control peptide […]; duplicated experiments; positive binder >40%"}, "[26]": {"target": "T3, HLA-A*30:02", "assay_type": "binding"}, "[27]": {"target": "T3, HLA-A*30:02", "assay_type": "binding", "settings": "time points 0-8 h"}, "[28]": {"target": "HLA-A*68:01 (Homo sapiens, UniProt P04439, A269V/D185E/E176V/E277Q/E87N/F33Y/G231S/I121M/I166T/I218V/L180W/L300P/L318F/N151K/P208A/P217A/Q86R/R169H/T345S)", "assay_type": "binding", "settings": "percent relative the binding of positive control peptide […]; duplicated experiments; positive binder >40%"}, "[29]": {"target": "T4, HLA-B*07:02", "assay_type": "binding", "settings": "percent relative the binding of positive control peptide […]; duplicated experiments; positive binder >40%"}, "[30]": {"target": "T4, HLA-B*07:02", "assay": "affinity assay (ED50)", "assay_type": "binding", "settings": "peptide titrated 10−4 to 10−9 M"}, "[31]": {"target": "T4, HLA-B*07:02", "assay": "off-rate assay (t1/2)", "assay_type": "binding", "settings": "time points 0-8 h"}},
  "note": "Where two headings read alike, the source gives them in different places. Marks after values point to notes of the source that are not given here.",
  "data": [
    {"substance": "RAYHAMSST [Rv0288_67–75wt]", "values": [
      {"measurement": "Bind B*58:01", "setting": "[1]", "value": 39, "unit": "%"},
      {"measurement": "Aff B*58:01 (ED50)", "setting": "[2]", "value": 10000, "unit": "nM"},
      {"measurement": "O-rate B*58:01 (t1/2)", "setting": "[3]", "value": 12, "unit": "min"},
      {"measurement": "Bind C*07:01", "setting": "[4]", "value": 35, "unit": "%"},
      {"measurement": "Aff C*07:01 (ED50)", "setting": "[5]", "value": "1e-05", "unit": "M"},
      {"measurement": "O-rate C*07:01 (t1/2)", "setting": "[6]", "value": 12, "unit": "min"},
      {"measurement": "Bind A*30:02", "setting": "[7]; […]", "value": "73** percent"},
      {"measurement": "Aff A*30:02 (ED50)", "setting": "[8]", "value": 1000, "unit": "nM"},
      {"measurement": "O-rate A*30:02 (t1/2)", "setting": "[9]", "value": 72, "unit": "min"},
      {"measurement": "Bind B*07:02", "setting": "[10]", "value": "39* percent"},
      {"measurement": "Aff B*07:02 (ED50)", "setting": "[11]", "value": 20000, "unit": "nM"},
      {"measurement": "O-rate B*07:02 (t1/2)", "setting": "[12]", "value": 48, "unit": "min"}
    ]},
    {"substance": "LVRAYHAMS [Rv0288_65–73wt]", "values": [
      {"measurement": "Bind A*30:01", "setting": "[13]", "value": "158** percent"},
      {"measurement": "Aff A*30:01 (ED50)", "setting": "[14]", "value": 2000, "unit": "nM"},
      {"measurement": "O-rate A*30:01 (t1/2)", "setting": "[15]", "value": 108, "unit": "min"},
      {"measurement": "Bind A*30:02", "setting": "[7]; wild-type epitopes marked **", "value": "75** percent"},
      {"measurement": "Aff A*30:02 (ED50)", "setting": "[8]; wild-type epitopes marked **", "value": 2000, "unit": "nM"},
      {"measurement": "O-rate A*30:02 (t1/2)", "setting": "[9]; wild-type epitopes marked **", "value": 60, "unit": "min"}
    ]},
    {"substance": "VANNT RLWV", "values": [
      {"measurement": "Bind A*02:01", "setting": "[16]", "value": 77, "unit": "%"},
      {"measurement": "Aff A*02:01 (ED50)", "setting": "[17]", "value": 5, "unit": "E -07 M"},
      {"measurement": "O-rate A*02:01 (t1/2)", "setting": "[18]", "value": 150, "unit": "min"},
      {"measurement": "Bind A*24:02", "setting": "[19]", "value": 58, "unit": "%"},
      {"measurement": "Aff A*24:02 (ED50)", "setting": "[20]", "value": 4000, "unit": "nM"},
      {"measurement": "O-rate A*24:02 (t1/2)", "setting": "[21]", "value": 18, "unit": "min"},
      {"measurement": "Bind A*30:01", "setting": "[22]", "value": 141, "unit": "%"},
      {"measurement": "Aff A*30:01 (ED50)", "setting": "[23]", "value": 3, "unit": "E -08 M"},
      {"measurement": "O-rate A*30:01 (t1/2)", "setting": "[24]", "value": 30, "unit": "min"},
      {"measurement": "Bind A*30:02", "setting": "[25]", "value": 171, "unit": "%"},
      {"measurement": "Aff A*30:02 (ED50)", "setting": "[26]", "value": 100, "unit": "nM"},
      {"measurement": "O-rate A*30:02 (t1/2)", "setting": "[27]", "value": 48, "unit": "min"},
      {"measurement": "Bind A*68:01", "setting": "[28]", "value": 3, "unit": "%"},
      {"measurement": "Bind B*07:02", "setting": "[29]", "value": 61, "unit": "%"},
      {"measurement": "Aff B*07:02 (ED50)", "setting": "[30]", "value": 600, "unit": "nM"},
      {"measurement": "O-rate B*07:02 (t1/2)", "setting": "[31]", "value": 42, "unit": "min"},
      {"measurement": "Bind B*58:01", "setting": "[1]", "value": 49, "unit": "%"},
      {"measurement": "Aff B*58:01 (ED50)", "setting": "[2]", "value": 10, "unit": "nM"},
      {"measurement": "O-rate B*58:01 (t1/2)", "setting": "[3]", "value": 114, "unit": "min"},
      {"measurement": "Bind C*07:01", "setting": "[4]", "value": 69, "unit": "%"},
      {"measurement": "Aff C*07:01 (ED50)", "setting": "[5]", "value": 3, "unit": "E -07 M"},
      {"measurement": "O-rate C*07:01 (t1/2)", "setting": "[6]", "value": 36, "unit": "min"}
    ]}
  ]
}
